In general, Cmax refers to the peak of the concentration-time curve. What is called AUC(0-t) is exposure summed from dosing to a finite time, without extrapolation to infinity. Broadly, the fraction unbound is free concentration divided by total concentration. Read a low fraction unbound as extensive binding.

These results are taken from patent publication US20100041697A1, “PNEUMONIA TREATMENT” (TaiGen Biotechnology Co., Ltd., priority 2008, published 2010).

Molecules are shown by their SMILES. Structures can show the parent of a compound that is named as a salt.

Series [1] relates to community-acquired pneumonia. Description: Randomized, double-blind clinical trials in community-acquired pneumonia. As to conditions: for cure rate / subjects cured: after 7 days; for cure rate: adult patients. It is filed as in vivo, human. Here is the method:
Randomized, double-blind clinical trials were conducted at 17 sites in Taiwan and South Africa to assess the effectiveness of Compound 1 in treating adult patients with community-acquired pneumonia.
The trials included a total of 265 subjects having community-acquired pneumonia. The average age of the subjects was 43.5 years old and the average body weight was 66.17 kg. About 50% of the subjects were male, and about 62% of the subjects were Black or African American, about 21% White, and about 15% Asian.
Among the 265 subjects, 86 were treated with 3 Compound 1-containing capsules (750 mg of the free base compound, i.e., (3S,5S)-7-[3-amino-5-methyl-piperidinyl]-1-cyclopropyl-1,4-dihydro-8-methoxy-4-oxo-3-quinolinecarboxylic acid) per day, 89 with 2 Compound 1-containing capsules (500 mg of the free base compound) per day, and 90 with 2 levofloxacin capsules (500 mg of levofloxacin) per day for 7 consecutive days. In each group, the drug capsules were orally taken by the subjects in the morning with a full glass of water (240 mL). Within 2 hours after taking the drugs, the subjects were not allowed to eat, but water intake (no more than 240 mL) was permitted. Overall, 10.6% of randomized subjects withdrew from the treatments.

Series [2] has as its system Methicillin-Resistant Staphylococcus aureus. Description: Broth microdilution MIC against methicillin-resistant Staphylococcus aureus (Taiwan isolates). In kind it is cell-based. The settings on record: 0.008 to 8 μg/ml. The protocol: (§1) The Staphylococcus aureus and Streptococcus pneumoniae isolates were obtained by 10 medical centers in all regions of Taiwan. MICs were determined using the broth microdilution method.

A further series concerns Streptococcus pneumoniae. Put plainly: Broth microdilution MIC against Streptococcus pneumoniae (Taiwan isolates). The settings on record: 0.008 to 8 μg/ml. It is filed as cell-based. Here is the method:
as §1
A general note: In broth dilution the organism is exposed to a series of concentrations in liquid medium.

A short description of series [3]: Pharmacokinetic analysis of plasma (Cmax, AUC0-24h) at steady state. The settings on record: for Free AUC0-24: corrected for plasma protein binding; for Cmax / AUC(0-t): human, po, steady state, plasma; for Cmax: in vivo. In kind it is in vivo, human.
Series [4] in a line: Plasma protein binding by ultrafiltration. In kind it is in vitro ADME. The settings on record: human plasma. The protocol: Protein binding was also measured as follows: Ultrafiltrate (UF) samples were obtained by centrifuging the above-mentioned Compound 1-contaning heparinized human plasma in molecular weight cutoff ultrafiltration devices (30,000 Da) at ˜3000 rpm (30 min, ˜37° C.). The UF samples (0.025 mL) were mixed with an internal standard solution—0.050 mL of ˜800 ng/mL O^13CD3-Compound 1 (in which the OCH3 group was replaced with the O^13CD3 group), diluted by 20 folds, and analyzed by reverse-phase HPLC on a 3.5 micron C-18 column. Quantitation was obtained by the multiple reaction monitoring method through positive ion Turbo-Ion Spray ionization. Ultrafiltrate standards were used to quantify the unbound drug in plasma quality control samples and unknown specimens. Non-specific protein binding (NSB) was measured (NSB=0.0415) and used as a correction factor to determine the final % protein bindings. The nominal range of quantitation for the analyte was 50 to 10,000 ng/mL. 0.400 mL aliquot of human plasma was used in the assay. Sample concentrations were determined by back-calculation using a weighted linear (1/x^2) regression of a calibration curve generated from spiked UF standards. Over the linear range, the inter-batch % CV for Compound 1 was 4.9% to 11.8%.

The test system of series [5] is multidrug-resistant methicillin-resistant Staphylococcus aureus. Description: Agar dilution MIC against multidrug-resistant MRSA (Taiwan isolates). In kind it is cell-based. The protocol:
Compound 1 was tested for its inhibitory effect against multidrug-resistant methicillin-resistant Staphylococcus aureus obtained by 10 medical centers in all regions of Taiwan. MICs were determined using the agar dilution methods recommended by the Clinical and Laboratory Standards Institute (CLSI-M100-S18).
Background: In agar dilution the substance is mixed into plates at graded concentrations.

Series [6] concerns Methicillin-Resistant Staphylococcus aureus. Description: Broth microdilution against MRSA isolates (CAN-ICU Study). It is filed as cell-based. The source says: MRSA isolates (n=193) were obtained as part of the Canadian National Intensive Care Unit (CAN-ICU) Study. 19 medical centers from all regions of Canada with active ICUs participated in the CAN-ICU study included. They were requested to only obtain “clinically significant” specimens from patients with a presumed infectious disease. Surveillance swabs, eye, ear, nose and throat swabs were excluded. Anaerobic organisms and fungal organisms were also excluded.
From September 2005-June 2006 (inclusive), each center collected a maximum of 300 consecutive pathogens isolated from blood, urine, tissue/wound, and respiratory specimens (one pathogen per cultured site per patient) of ICU patients. These isolates were shipped to the reference laboratory (Health Sciences Centre, Winnipeg, Canada) on Amies charcoal swabs, subcultured in appropriate media, and stocked in skim milk at −80° C.
The isolates' methicillin resistance was confirmed using the disk diffusion method described by the Clinical and Laboratory Standards Institute. […] Their PFGE fingerprints thus obtained were analyzed with BioNumerics v3.5 (Applied Maths St. Marten-Latem, Belgium) using a position tolerance of 1.0 and an optimization of 1.0. Strain relatedness was determined as previously described (Tenover et al., 1995). […]

The mark [7] stands for this setting: 500 mg per day orally, 89 treated (Compound 1), 90 treated (levofloxacin).

Regarding `C[C@H]1COc2c(N3CCN(C)CC3)c(F)cc3c(=O)c(C(=O)O)cn1c23` [levofloxacin, reference compound], the cure rate in series [1] (500 mg per day orally) came to 80.0%. The subjects cured in series [1] (setting [7]) was found to be 72 subjects.
`COc1c(N2C[C@H](C)C[C@H](N)C2)ccc2c(=O)c(C(=O)O)cn(C3CC3)c12` [Compound 1′, malate salt hemihydrate of (3S,5R)-7-[3-amino-5-methyl-piperidinyl]-1-cyclopropyl-1,4-dihydro-8-methoxy-4-oxo-3-quinolinecarboxylic acid]: in series [2], the “inhibitory effect against methicillin-resistant Staphylococcus aureus” value is “effective in inhibiting”. The “inhibitory effect against Streptococcus pneumoniae” value in the series with Streptococcus pneumoniae was “effective in inhibiting”.
Consider `COc1c(N2C[C@@H](C)C[C@H](N)C2)ccc2c(=O)c(C(=O)O)cn(C3CC3)c12` [Compound 1, malate salt hemihydrate of (3S,5S)-7-[3-amino-5-methyl-piperidinyl]-1-cyclopropyl-1,4-dihydro-8-methoxy-4-oxo-3-quinolinecarboxylic acid], for which the cure rate turned out to be 75.3% in series [1] (500 mg per day orally) and 82.6% in series [1] (750 mg per day orally). Further, the subjects cured in series [1] (setting [7]) is given as 67 subjects; in series [1] (750 mg per day orally, 86 treated) it was 71 subjects. In addition, the “effectiveness in treating community-acquired pneumonia” value in series [1] (oral capsules, 7 consecutive days) is listed as “effective in treating community-acquired pneumonia”. Further, the figures for the “Free AUC0-24” value in series [3] (500 mg q24 p.o.), in series [3] (750 mg q24 p.o.) and in series [3] (1000 mg q24 p.o.) were 32.4 µg·h/mL, 49.1 µg·h/mL and 62.9 µg·h/mL, respectively. Moreover, the Cmax worked out at 5.56 µg/mL in series [3] (500 mg q24 p.o.), 6.82 µg/mL in series [3] (750 mg q24 p.o.) and 8.2 µg/mL in series [3] (1000 mg q24 p.o.). For the same molecule, the AUC(0-t) in series [3] (500 mg q24 p.o.) turned out to be 38.6 µg·h/mL; in series [3] (750 mg q24 p.o.), 58.4 µg·h/mL; in series [3] (1000 mg q24 p.o.) it was 74.8 µg·h/mL. This molecule had a free fraction (fraction unbound) at 30 min in series [4] (500 mg per day, 500 mg q24 p.o.) of 0.84. For the same molecule, the “Protein Binding” value in series [4] (750 mg q24 p.o.) and in series [4] (1000 mg q24 p.o.) was 16% throughout. Moreover, the “inhibitory effect against MRSA isolates that are Ciprofloxacin-resistant, Vancomycin-intermediate-resistant, and Daptomycin-nonsusceptible” value in series [5] is “effective in inhibiting”. For the same molecule, the “activity against community-associated-MRSA versus healthcare-associated-MRSA strains” value in series [6] was “more active against community-associated-MRSA strains than healthcare-associated-MRSA strains”. The “inhibitory activity against the MRSA isolates” value in series [6] (193 MRSA isolates) is listed as “effectively inhibited MRSA”.
